Columns and labels:
[1] = test system: Staphylococcus aureus; test: Antimicrobial activity against Staphylococcus aureus ATCC 29213 assessed as post antibiotic effect at 10 times MIC after 2 hr by plate counting method; type: functional
[2] = test system: Streptococcus pneumoniae; test: Antimicrobial activity against Streptococcus pneumoniae ATCC 6306 assessed as post antibiotic effect at 10 times MIC after 2 hr by plate counting method; type: functional

## CO/N=C(\C(=O)N[C@@H]1C(=O)N2C(C(=O)O)=C(CSc3nc(=O)c(O)nn3C)CS[C@H]12)c1csc(N)n1 [CEFTRIAXONE]
[1]
  PAE: 2.3 h
[2]
  PAE: 0.7 h
